Results as given in US10683269B2 (MISSION THERAPEUTICS LIMITED, priority 2016, dated 2020).

target: T1, USP7 (Homo sapiens, UniProt Q93009); assay: USP7 biochemical IC50 assay (fluorescence polarisation, TAMRA labelled peptide linked to ubiquitin via an iso-peptide bond); conditions: 30 min pre-incubation of enzyme and compound, read after 2 hr incubation at room temperature, read-out: IC50 range
T1 construct: The USP7 construct was PCR amplified and cloned into a pFLAG-CMV-6a vector (Sigma-Aldrich) with an N-terminal FLAG tag; made in house; host or cells: HEK293T
Procedure, shortened: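 Fluorescence polarisation at 540 nm excitation/590 nm emission, read immediately and after 2 hr at room temperature, following addition of 50 nM TAMRA-labelled iso-peptide ubiquitin substrate.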

T1 sequence (Q93009 whole entry): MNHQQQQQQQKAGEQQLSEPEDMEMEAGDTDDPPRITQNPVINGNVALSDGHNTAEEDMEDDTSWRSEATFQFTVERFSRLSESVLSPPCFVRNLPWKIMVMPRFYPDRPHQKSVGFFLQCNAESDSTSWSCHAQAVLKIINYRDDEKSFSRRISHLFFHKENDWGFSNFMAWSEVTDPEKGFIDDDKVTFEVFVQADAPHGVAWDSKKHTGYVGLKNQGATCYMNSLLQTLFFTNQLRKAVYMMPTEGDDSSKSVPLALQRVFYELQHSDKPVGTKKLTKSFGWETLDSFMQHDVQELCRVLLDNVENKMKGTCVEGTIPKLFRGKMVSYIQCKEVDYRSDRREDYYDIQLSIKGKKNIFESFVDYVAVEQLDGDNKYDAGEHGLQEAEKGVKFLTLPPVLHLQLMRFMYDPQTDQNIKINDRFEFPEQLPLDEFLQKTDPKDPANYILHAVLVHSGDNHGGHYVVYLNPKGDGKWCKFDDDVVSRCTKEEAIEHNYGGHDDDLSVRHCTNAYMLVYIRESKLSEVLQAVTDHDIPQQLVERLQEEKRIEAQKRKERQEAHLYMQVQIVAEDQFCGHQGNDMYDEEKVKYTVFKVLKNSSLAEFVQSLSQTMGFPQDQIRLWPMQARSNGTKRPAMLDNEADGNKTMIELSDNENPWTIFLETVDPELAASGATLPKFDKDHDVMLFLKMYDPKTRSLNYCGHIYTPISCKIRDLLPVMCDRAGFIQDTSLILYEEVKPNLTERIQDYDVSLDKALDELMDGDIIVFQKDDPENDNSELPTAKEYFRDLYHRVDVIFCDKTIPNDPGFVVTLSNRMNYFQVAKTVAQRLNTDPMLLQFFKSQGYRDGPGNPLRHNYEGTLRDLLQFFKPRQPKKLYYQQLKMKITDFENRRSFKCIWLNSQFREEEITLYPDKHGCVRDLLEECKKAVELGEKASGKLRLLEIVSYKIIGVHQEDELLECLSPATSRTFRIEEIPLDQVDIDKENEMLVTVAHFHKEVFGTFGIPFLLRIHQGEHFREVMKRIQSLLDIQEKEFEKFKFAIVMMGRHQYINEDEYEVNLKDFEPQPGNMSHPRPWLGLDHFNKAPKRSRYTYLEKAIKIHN

IC50 | Compound
1000 to 10000 nM | CN1CCOC(CN(C)c2nc3c(c(N4CCc5ccccc5C4)n2)CN(C#N)C3)C1 (stereo not shown) [Example 203, 4-(3,4-dihydroisoquinolin-2(1H)-yl)-2-(methyl((4-methylmorpholin-2-yl)methyl)amino)-5,7-dihydro-6H-pyrrolo[3,4-d]pyrimidine-6-carbonitrile]
1000 to 10000 nM | CNc1nc2c(c(N3CCC(Oc4ccccc4)CC3)n1)CN(C#N)C2 [Example 204, 2-(methylamino)-4-(4-phenoxypiperidin-1-yl)-5,7-dihydro-6H-pyrrolo[3,4-d]pyrimidine-6-carbonitrile]
1000 to 10000 nM | CN(C)c1nc2c(c(N3CCC(Oc4ccccc4)CC3)n1)CN(C#N)C2 [Example 205, 2-(dimethylamino)-4-(4-phenoxypiperidin-1-yl)-5,7-dihydro-6H-pyrrolo[3,4-d]pyrimidine-6-carbonitrile]
1000 to 10000 nM | N#CN1Cc2nc(NCCO)nc(N3CCC(Oc4ccccc4)CC3)c2C1 [Example 206, 2-((2-hydroxyethyl)amino)-4-(4-phenoxypiperidin-1-yl)-5,7-dihydro-6H-pyrrolo[3,4-d]pyrimidine-6-carbonitrile]
10000 to 30000 nM | N#CN1Cc2nc(N)nc(N3CCC(Oc4ccccc4)CC3)c2C1 [Example 207, 2-amino-4-(4-phenoxypiperidin-1-yl)-5,7-dihydro-6H-pyrrolo[3,4-d]pyrimidine-6-carbonitrile]
10000 to 30000 nM | N#Cc1ccc(-c2nc(NCCO)nc3c2CN(C#N)C3)cc1 [Example 208, 4-(4-cyanophenyl)-2-((2-hydroxyethyl)amino)-5,7-dihydro-6H-pyrrolo[3,4-d]pyrimidine-6-carbonitrile]
1000 to 10000 nM | N#CN1Cc2nc(NCCO)nc(-c3ccc(F)c(F)c3)c2C1 [Example 209, 4-(3,4-difluorophenyl)-2-((2-hydroxyethyl)amino)-5,7-dihydro-6H-pyrrolo[3,4-d]pyrimidine-6-carbonitrile]
1000 to 10000 nM | CC(=O)Nc1cccc(-c2nc(NCCO)nc3c2CN(C#N)C3)c1 [Example 210, N-(3-(6-cyano-2-((2-hydroxyethyl)amino)-6,7-dihydro-5H-pyrrolo[3,4-d]pyrimidin-4-yl)phenyl)acetamide]
< 1000 nM | COc1ccc(-c2nc(NCCO)nc3c2CN(C#N)C3)cc1 [Example 211, 2-((2-hydroxyethyl)amino)-4-(4-methoxyphenyl)-5,7-dihydro-6H-pyrrolo[3,4-d]pyrimidine-6-carbonitrile]
1000 to 10000 nM | CN1CCN(c2ccc(-c3nc(NCCO)nc4c3CN(C#N)C4)cc2)CC1 [Example 212, 2-((2-hydroxyethyl)amino)-4-(4-(4-methylpiperazin-1-yl)phenyl)-5,7-dihydro-6H-pyrrolo[3,4-d]pyrimidine-6-carbonitrile]
1000 to 10000 nM | CN(C)Cc1cc2c(c(-c3ccccc3)c1)CN(C#N)C2 [Example 213, 6-((dimethylamino)methyl)-4-phenylisoindoline-2-carbonitrile]
1000 to 10000 nM | CC(=O)NCc1cc2c(c(-c3ccccc3)c1)CN(C#N)C2 [Example 214, N-((2-cyano-7-phenylisoindolin-5-yl)methyl)acetamide]
1000 to 10000 nM | COCCc1cc2c(c(-c3ccccc3)c1)CN(C#N)C2 [Example 215, 6-(2-methoxyethyl)-4-phenylisoindoline-2-carbonitrile]
1000 to 10000 nM | CS(=O)(=O)Cc1cc2c(c(-c3ccc(C#N)cc3)c1)CN(C#N)C2 [Example 216, 4-(4-cyanophenyl)-6-((methylsulfonyl)methyl)isoindoline-2-carbonitrile]
1000 to 10000 nM | CC(=O)NCc1cc2c(c(-c3ccc(C#N)cc3)c1)CN(C#N)C2 [Example 217, N-((2-cyano-7-(4-cyanophenyl)isoindolin-5-yl)methyl)acetamide]
1000 to 10000 nM | CC(=O)N(C)Cc1cc2c(c(-c3ccc(C#N)cc3)c1)CN(C#N)C2 [Example 218, N-((2-cyano-7-(4-cyanophenyl)isoindolin-5-yl)methyl)-N-methylacetamide]
1000 to 10000 nM | N#Cc1ccc(-c2cc(CNC(=O)C3CCOCC3)cc3c2CN(C#N)C3)cc1 [Example 219, N-((2-cyano-7-(4-cyanophenyl)isoindolin-5-yl)methyl)tetrahydro-2H-pyran-4-carboxamide]
1000 to 10000 nM | N#Cc1ccc(-c2cc(CNC(=O)C3CCS(=O)(=O)CC3)cc3c2CN(C#N)C3)cc1 [Example 220, N-((2-cyano-7-(4-cyanophenyl)isoindolin-5-yl)methyl)tetrahydro-2H-thiopyran-4-carboxamide 1,1-dioxide]
< 1000 nM | Cn1cc(C(=O)NCc2cc3c(c(-c4ccc(C#N)cc4)c2)CN(C#N)C3)cn1 [Example 221, N-((2-cyano-7-(4-cyanophenyl)isoindolin-5-yl)methyl)-1-methyl-1H-pyrazole-4-carboxamide]
1000 to 10000 nM | CS(=O)(=O)NCc1cc2c(c(-c3ccc(C#N)cc3)c1)CN(C#N)C2 [Example 222, N-((2-cyano-7-(4-cyanophenyl)isoindolin-5-yl)methyl)methanesulfonamide]
1000 to 10000 nM | CN(C)C(=O)NCc1cc2c(c(-c3ccc(C#N)cc3)c1)CN(C#N)C2 [Example 223, 3-((2-cyano-7-(4-cyanophenyl)isoindolin-5-yl)methyl)-1,1-dimethylurea]
1000 to 10000 nM | CC(C)OC(=O)NCc1cc2c(c(-c3ccc(C#N)cc3)c1)CN(C#N)C2 [Example 224, isopropyl ((2-cyano-7-(4-cyanophenyl)isoindolin-5-yl)methyl)carbamate]

IC50 | Compound
1000 to 10000 nM | CC(=O)NCc1cc2c(c(-c3ccccc3C#N)c1)CN(C#N)C2 [Example 225, N-((2-cyano-7-(2-cyanophenyl)isoindolin-5-yl)methyl)acetamide]
1000 to 10000 nM | CC(=O)NCc1cc2c(c(-c3ccc(C#N)cc3C#N)c1)CN(C#N)C2 [Example 226, N-((2-cyano-7-(2,4-dicyanophenyl)isoindolin-5-yl)methyl)acetamide]
< 1000 nM | CNC(=O)NCc1cc2c(c(-c3ccc(C#N)cc3)c1)CN(C#N)C2 [Example 227, 1-((2-cyano-7-(4-cyanophenyl)isoindolin-5-yl)methyl)-3-methylurea]
1000 to 10000 nM | CNC(=O)NCc1cc2c(c(-c3ccc(C#N)cc3C#N)c1)CN(C#N)C2 [Example 228, 1-((2-cyano-7-(2,4-dicyanophenyl)isoindolin-5-yl)methyl)-3-methylurea]
1000 to 10000 nM | CNC(=O)NCc1cc2c(c(-c3ccccc3C#N)c1)CN(C#N)C2 [Example 229, 1-((2-cyano-7-(2-cyanophenyl)isoindolin-5-yl)methyl)-3-methylurea]
< 1000 nM | N#Cc1ccc(-c2cc(CNc3ccn[nH]3)cc3c2CN(C#N)C3)cc1 [Example 230, 6-(((1H-pyrazol-5-yl)amino)methyl)-4-(4-cyanophenyl)isoindoline-2-carbonitrile]
1000 to 10000 nM | N#Cc1cc2c(c(-c3ccccc3C(N)=O)c1)CN(C#N)C2 [Example 231, 2-(2,6-dicyanoisoindolin-4-yl)benzamide]
1000 to 10000 nM | CN(C)C(=O)c1cc2c(c(-c3ccc(C#N)cc3)c1)CN(C#N)C2 [Example 232, 2-cyano-7-(4-cyanophenyl)-N,N-dimethylisoindoline-5-carboxamide]
1000 to 10000 nM | N#Cc1ccc(-c2cc(C(N)=O)cc3c2CN(C#N)C3)c(C#N)c1 [Example 233, 2-cyano-7-(2,4-dicyanophenyl)isoindoline-5-carboxamide]
1000 to 10000 nM | COc1ccc(C#N)c(-c2cc(C(N)=O)cc3c2CN(C#N)C3)c1 [Example 234, 2-cyano-7-(2-cyano-5-methoxyphenyl)isoindoline-5-carboxamide]
1000 to 10000 nM | N#Cc1cc(F)ccc1-c1cc(C(N)=O)cc2c1CN(C#N)C2 [Example 235, 2-cyano-7-(2-cyano-4-fluorophenyl)isoindoline-5-carboxamide]
1000 to 10000 nM | N#Cc1ccc(-c2cc(C(=O)N3CCS(=O)(=O)CC3)cc3c2CN(C#N)C3)cc1 [Example 236, 4-(4-cyanophenyl)-6-(1,1-dioxidothiomorpholine-4-carbonyl)isoindoline-2-carbonitrile]
1000 to 10000 nM | CNC(=O)c1cc2c(c(-c3ccc(C#N)cc3)c1)CN(C#N)C2 [Example 237, 2-cyano-7-(4-cyanophenyl)-N-methylisoindoline-5-carboxamide]
1000 to 10000 nM | N#Cc1ccc(-c2cc(C(=O)NC3CCOCC3)cc3c2CN(C#N)C3)cc1 [Example 238, 2-cyano-7-(4-cyanophenyl)-N-(tetrahydro-2H-pyran-4-yl)isoindoline-5-carboxamide]
1000 to 10000 nM | CNC(=O)c1cc2c(c(-c3ccc(C#N)cc3C#N)c1)CN(C#N)C2 [Example 239, 2-cyano-7-(2,4-dicyanophenyl)-N-methylisoindoline-5-carboxamide]
< 1000 nM | CNC(=O)c1cc2c(c(-c3ccc(F)cc3)c1)CN(C#N)C2 [Example 240, 2-cyano-7-(4-fluorophenyl)-N-methylisoindoline-5-carboxamide]
1000 to 10000 nM | N#Cc1ccccc1-c1cc(C(N)=O)cc2c1CN(C#N)C2 [Example 241, 2-cyano-7-(2-cyanophenyl)isoindoline-5-carboxamide]
1000 to 10000 nM | CS(=O)(=O)Nc1cc2c(c(-c3ccccc3C#N)c1)CN(C#N)C2 [Example 242, N-(2-cyano-7-(2-cyanophenyl)isoindolin-5-yl)methanesulfonamide]
1000 to 10000 nM | CS(=O)(=O)Nc1cc2c(c(-c3ccc(C#N)cc3C#N)c1)CN(C#N)C2 [Example 243, N-(2-cyano-7-(2,4-dicyanophenyl)isoindolin-5-yl)methanesulfonamide]
1000 to 10000 nM | CS(=O)(=O)Nc1cc2c(c(-c3ccc(C#N)cc3)c1)CN(C#N)C2 [Example 244, N-(2-cyano-7-(4-cyanophenyl)isoindolin-5-yl)methanesulfonamide]
1000 to 10000 nM | COc1ccc(C#N)c(-c2cc(NS(C)(=O)=O)cc3c2CN(C#N)C3)c1 [Example 245, N-(2-cyano-7-(2-cyano-5-methoxyphenyl)isoindolin-5-yl)methanesulfonamide]
